Assay results: ChEMBL document CHEMBL1909046, “DrugMatrix in vitro pharmacology data”

Tests used:
Endothelin-1 receptor = biological target: T1, Endothelin-1 receptor (Homo sapiens, UniProt P25101); type: cell membranes, Membrane; conditions: cho-k1; further: in other assays of this panel Not Active means under 50% inhibition at 10 µM
T1 sequence (P25101 whole entry): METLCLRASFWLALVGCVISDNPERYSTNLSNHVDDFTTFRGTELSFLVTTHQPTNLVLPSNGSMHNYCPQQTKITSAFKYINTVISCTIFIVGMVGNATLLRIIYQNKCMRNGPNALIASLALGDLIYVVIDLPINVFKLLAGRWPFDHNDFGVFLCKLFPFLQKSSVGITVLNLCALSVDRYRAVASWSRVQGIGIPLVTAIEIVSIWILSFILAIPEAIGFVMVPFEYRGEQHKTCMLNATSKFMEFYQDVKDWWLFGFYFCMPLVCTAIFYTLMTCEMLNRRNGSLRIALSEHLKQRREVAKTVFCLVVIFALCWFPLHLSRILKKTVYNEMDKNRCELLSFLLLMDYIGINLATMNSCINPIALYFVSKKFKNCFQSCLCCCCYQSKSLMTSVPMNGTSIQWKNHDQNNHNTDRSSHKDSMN

Cytochrome P450 2E1 = Cytochrome P450 2E1 (Homo sapiens, UniProt P05181); conditions: bti-tn-5b1-4; further: in other assays of this panel Not Active means under 50% inhibition at 10 µM
[1] = biological target: 5-hydroxytryptamine receptor 1B (Rattus norvegicus, UniProt P28564); type: cell membranes, Wistar, Cerebral cortex, Membrane; further: in other assays of this panel Not Active means under 50% inhibition at 10 µM
Substance-P receptor = Substance-P receptor (Homo sapiens, UniProt P25103); type: cell membranes, CHO, Membrane; conditions: cho; further: in other assays of this panel Not Active means under 50% inhibition at 10 µM
[2] = biological target: T2, Cysteinyl leukotriene receptor 1 (Homo sapiens, UniProt Q9Y271); type: cell membranes, CHO-K1, Membrane; conditions: cho-k1; further: in other assays of this panel Not Active means under 50% inhibition at 10 µM
T2 sequence (Q9Y271 whole entry): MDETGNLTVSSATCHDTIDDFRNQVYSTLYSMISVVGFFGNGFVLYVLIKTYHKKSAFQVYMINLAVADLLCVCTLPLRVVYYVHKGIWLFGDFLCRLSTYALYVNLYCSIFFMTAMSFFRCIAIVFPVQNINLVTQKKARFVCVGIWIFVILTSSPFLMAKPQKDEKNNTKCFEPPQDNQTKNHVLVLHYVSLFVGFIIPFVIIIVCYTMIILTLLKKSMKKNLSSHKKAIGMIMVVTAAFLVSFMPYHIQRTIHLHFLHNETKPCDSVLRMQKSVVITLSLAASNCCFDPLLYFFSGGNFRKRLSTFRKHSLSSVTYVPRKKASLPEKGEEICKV

[3] = biological target: Mitogen-activated protein kinase 3 (Homo sapiens, UniProt P27361); experiment: DRUGMATRIX: Protein Serine/Threonine Kinase, ERK1 enzyme inhibition (substrate: Myelin Basic Protein); design: species or system Escherichia coli; conditions: Not Active = under 50% inhibition at 10 µM
Adenosine receptor A1 = biological target: T3, Adenosine receptor A1 (Homo sapiens, UniProt P30542); type: cell membranes, CHO, Membrane; conditions: cho
T3 sequence (P30542 whole entry): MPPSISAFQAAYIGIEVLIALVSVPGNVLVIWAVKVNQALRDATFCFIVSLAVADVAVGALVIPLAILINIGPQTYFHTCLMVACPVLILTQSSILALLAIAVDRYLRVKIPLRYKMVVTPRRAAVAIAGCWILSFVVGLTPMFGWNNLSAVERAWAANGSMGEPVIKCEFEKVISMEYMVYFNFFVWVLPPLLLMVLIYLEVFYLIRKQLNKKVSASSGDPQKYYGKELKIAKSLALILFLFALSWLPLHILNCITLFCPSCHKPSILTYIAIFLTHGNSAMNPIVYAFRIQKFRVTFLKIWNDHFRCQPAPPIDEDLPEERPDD

[4] = biological target: 5-hydroxytryptamine receptor 4 (Cavia porcellus, UniProt O70528); type: cell membranes, Dunkin-Hartley, Striatum, Membrane; further: in other assays of this panel Not Active means under 50% inhibition at 10 µM
Melanocortin receptor 3 = Melanocortin receptor 3 (Homo sapiens, UniProt P41968); type: cell membranes, Membrane; conditions: hek293; further: in other assays of this panel Not Active means under 50% inhibition at 10 µM
[5] = biological target: 5-hydroxytryptamine receptor 6 (Homo sapiens, UniProt P50406); type: cell membranes, HeLa, Membrane; conditions: hela; further: in other assays of this panel Not Active means under 50% inhibition at 10 µM
Cytochrome P450 1A2 = biological target: T4, Cytochrome P450 1A2 (Homo sapiens, UniProt P05177); conditions: bti-tn-5b1-4; further: in other assays of this panel Not Active means under 50% inhibition at 10 µM
T4 sequence (P05177 whole entry): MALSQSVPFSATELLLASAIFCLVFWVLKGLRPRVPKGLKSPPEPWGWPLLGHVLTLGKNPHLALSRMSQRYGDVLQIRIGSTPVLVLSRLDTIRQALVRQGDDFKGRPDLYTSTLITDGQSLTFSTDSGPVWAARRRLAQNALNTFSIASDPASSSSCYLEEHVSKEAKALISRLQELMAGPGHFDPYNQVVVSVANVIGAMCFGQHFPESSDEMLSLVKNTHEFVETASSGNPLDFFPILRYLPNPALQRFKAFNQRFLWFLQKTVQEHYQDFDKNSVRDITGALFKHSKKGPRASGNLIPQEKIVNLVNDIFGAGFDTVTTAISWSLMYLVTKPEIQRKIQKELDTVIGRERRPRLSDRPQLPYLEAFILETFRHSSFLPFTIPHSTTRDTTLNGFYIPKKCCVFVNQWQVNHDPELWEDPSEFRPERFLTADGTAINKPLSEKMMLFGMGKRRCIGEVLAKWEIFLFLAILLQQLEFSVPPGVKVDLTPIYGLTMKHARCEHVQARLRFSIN

[6] = biological target: T5, Alpha-1D adrenergic receptor (Homo sapiens, UniProt P25100); type: cell membranes, HEK293, Membrane; conditions: hek293; further: in other assays of this panel Not Active means under 50% inhibition at 10 µM
T5 sequence (P25100 whole entry): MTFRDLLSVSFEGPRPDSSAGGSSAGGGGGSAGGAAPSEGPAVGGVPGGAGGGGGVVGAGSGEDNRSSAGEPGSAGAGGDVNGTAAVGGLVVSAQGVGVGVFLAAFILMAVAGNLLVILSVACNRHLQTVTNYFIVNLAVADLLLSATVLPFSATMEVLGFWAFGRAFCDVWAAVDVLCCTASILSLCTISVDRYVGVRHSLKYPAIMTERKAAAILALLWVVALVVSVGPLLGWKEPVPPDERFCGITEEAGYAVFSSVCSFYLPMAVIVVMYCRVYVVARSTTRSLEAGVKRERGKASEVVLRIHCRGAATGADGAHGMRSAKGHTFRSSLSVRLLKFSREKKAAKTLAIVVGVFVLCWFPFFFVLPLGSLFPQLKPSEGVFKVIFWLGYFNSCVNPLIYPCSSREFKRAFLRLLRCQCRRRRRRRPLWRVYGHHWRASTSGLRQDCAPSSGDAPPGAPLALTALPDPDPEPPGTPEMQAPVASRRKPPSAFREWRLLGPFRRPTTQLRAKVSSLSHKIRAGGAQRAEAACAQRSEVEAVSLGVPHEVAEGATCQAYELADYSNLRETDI

[7] = biological target: Mitogen-activated protein kinase 1 (Homo sapiens, UniProt P28482); experiment: DRUGMATRIX: Protein Serine/Threonine Kinase, ERK2 enzyme inhibition (substrate: Myelin Basic Protein); design: species or system Escherichia coli; conditions: Not Active = under 50% inhibition at 10 µM
Mitogen-activated protein kinase 1, sequence (P28482 whole entry): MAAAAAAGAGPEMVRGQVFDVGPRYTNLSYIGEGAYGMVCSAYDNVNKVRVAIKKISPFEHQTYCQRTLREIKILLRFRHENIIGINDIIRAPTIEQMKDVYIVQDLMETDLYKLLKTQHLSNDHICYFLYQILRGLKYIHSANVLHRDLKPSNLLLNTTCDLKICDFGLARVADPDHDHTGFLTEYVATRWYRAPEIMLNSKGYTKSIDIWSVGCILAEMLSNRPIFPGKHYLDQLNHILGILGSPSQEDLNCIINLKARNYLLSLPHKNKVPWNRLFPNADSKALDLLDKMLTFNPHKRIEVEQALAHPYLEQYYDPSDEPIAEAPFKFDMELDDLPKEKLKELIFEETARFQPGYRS

Mitogen-activated protein kinase 3, sequence (P27361 whole entry): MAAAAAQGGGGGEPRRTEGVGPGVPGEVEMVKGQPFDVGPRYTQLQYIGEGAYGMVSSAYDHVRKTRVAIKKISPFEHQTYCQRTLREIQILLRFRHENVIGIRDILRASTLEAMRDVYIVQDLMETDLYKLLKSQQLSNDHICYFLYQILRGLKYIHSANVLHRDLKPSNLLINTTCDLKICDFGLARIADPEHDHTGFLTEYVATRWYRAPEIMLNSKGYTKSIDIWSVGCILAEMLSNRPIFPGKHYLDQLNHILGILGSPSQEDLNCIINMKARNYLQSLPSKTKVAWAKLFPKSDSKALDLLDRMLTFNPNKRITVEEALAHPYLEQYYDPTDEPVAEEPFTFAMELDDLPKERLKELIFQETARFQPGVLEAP
Cytochrome P450 2E1, sequence (P05181 whole entry): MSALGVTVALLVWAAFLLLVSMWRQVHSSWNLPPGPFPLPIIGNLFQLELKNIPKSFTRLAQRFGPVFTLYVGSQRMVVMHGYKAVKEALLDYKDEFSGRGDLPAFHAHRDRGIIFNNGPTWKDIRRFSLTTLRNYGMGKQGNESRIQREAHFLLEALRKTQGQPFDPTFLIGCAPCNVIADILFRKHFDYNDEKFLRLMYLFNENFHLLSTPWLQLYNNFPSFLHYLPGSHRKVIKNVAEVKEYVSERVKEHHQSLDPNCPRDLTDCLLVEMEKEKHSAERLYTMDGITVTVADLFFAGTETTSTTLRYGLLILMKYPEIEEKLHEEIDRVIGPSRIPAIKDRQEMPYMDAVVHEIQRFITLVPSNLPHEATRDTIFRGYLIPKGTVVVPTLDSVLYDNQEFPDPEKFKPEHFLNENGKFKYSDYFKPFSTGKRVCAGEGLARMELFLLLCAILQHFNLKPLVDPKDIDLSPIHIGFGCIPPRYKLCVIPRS
5-hydroxytryptamine receptor 6, sequence (P50406 whole entry): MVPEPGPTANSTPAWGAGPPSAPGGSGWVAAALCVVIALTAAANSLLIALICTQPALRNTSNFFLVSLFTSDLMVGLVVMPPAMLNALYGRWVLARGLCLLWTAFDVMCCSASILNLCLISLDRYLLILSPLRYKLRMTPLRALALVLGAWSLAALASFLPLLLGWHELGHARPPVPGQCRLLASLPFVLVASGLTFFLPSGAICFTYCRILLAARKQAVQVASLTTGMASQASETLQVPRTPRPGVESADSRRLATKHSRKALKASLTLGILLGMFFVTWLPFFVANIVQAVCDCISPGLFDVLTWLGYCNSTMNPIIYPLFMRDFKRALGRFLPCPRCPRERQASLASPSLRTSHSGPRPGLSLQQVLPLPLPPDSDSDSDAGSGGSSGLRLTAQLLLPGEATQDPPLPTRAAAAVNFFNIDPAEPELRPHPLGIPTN
Melanocortin receptor 3, sequence (P41968 whole entry): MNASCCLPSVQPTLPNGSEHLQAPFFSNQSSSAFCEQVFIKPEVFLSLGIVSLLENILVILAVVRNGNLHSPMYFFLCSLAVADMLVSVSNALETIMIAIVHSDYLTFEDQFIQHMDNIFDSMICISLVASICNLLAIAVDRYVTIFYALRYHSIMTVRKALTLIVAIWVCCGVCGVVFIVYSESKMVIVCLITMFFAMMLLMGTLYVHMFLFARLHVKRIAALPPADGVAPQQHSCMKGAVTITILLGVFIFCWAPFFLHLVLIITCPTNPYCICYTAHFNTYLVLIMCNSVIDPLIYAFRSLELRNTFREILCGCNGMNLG
5-hydroxytryptamine receptor 4, sequence (O70528 whole entry): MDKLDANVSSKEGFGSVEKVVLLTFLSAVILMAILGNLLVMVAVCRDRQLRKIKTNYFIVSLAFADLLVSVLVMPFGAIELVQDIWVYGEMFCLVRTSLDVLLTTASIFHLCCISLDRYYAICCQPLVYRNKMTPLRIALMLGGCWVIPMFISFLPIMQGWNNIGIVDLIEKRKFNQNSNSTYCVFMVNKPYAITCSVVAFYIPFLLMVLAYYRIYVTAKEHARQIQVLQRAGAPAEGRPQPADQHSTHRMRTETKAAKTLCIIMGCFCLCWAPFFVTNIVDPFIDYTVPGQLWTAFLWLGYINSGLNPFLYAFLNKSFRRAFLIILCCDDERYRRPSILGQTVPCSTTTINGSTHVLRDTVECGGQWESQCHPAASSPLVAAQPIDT
5-hydroxytryptamine receptor 1B, sequence (P28564 whole entry): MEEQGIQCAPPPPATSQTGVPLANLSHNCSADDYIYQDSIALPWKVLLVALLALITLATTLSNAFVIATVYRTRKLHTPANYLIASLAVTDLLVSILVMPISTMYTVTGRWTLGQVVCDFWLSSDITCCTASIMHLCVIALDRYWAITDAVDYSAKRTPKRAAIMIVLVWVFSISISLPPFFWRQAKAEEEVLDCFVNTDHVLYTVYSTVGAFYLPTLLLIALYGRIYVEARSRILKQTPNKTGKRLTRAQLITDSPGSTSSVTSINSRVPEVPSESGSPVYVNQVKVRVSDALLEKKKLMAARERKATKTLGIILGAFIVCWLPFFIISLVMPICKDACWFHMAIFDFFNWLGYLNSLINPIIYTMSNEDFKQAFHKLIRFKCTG
Substance-P receptor, sequence (P25103 whole entry): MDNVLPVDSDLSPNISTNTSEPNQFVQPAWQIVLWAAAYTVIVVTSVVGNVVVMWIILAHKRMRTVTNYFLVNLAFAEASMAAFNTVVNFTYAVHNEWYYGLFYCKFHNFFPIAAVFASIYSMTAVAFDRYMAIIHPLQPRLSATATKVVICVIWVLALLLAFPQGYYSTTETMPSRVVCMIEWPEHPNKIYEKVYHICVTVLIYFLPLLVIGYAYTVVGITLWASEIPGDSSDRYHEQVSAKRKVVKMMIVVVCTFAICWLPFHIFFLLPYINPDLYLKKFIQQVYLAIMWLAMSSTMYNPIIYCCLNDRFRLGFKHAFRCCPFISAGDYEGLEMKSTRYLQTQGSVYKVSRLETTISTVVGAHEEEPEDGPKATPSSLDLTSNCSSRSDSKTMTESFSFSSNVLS

CC(=O)O[C@]1(C(C)=O)CC[C@H]2[C@@H]3C=C(Cl)C4=CC(=O)CC[C@]4(C)[C@H]3CC[C@@]21C [CHLORMADINONE ACETATE]
Not Active: IC50 (Endothelin-1 receptor) | IC50 (Cytochrome P450 2E1) | Ki (Cytochrome P450 2E1) | IC50 [1] | IC50 (Substance-P receptor) | IC50 [2] | IC50 [3] | IC50 (Adenosine receptor A1) | IC50 [4] | IC50 (Melanocortin receptor 3) | IC50 [5] | IC50 (Cytochrome P450 1A2) | Ki (Cytochrome P450 1A2) | IC50 [6] | IC50 [7]

CN1CCC[C@H]1c1cccnc1 [NICOTINE]
Not Active: IC50 (Endothelin-1 receptor) | IC50 (Cytochrome P450 2E1) | Ki (Cytochrome P450 2E1) | IC50 [1] | IC50 (Substance-P receptor) | IC50 [2] | IC50 [3] | IC50 (Adenosine receptor A1) | IC50 [4] | IC50 (Melanocortin receptor 3) | IC50 [5] | IC50 (Cytochrome P450 1A2) | Ki (Cytochrome P450 1A2) | IC50 [6] | IC50 [7]

NCC[C@H](O)C(=O)N[C@@H]1C[C@H](N)[C@@H](O[C@H]2O[C@H](CN)[C@@H](O)[C@H](O)[C@H]2O)[C@H](O)[C@H]1O[C@H]1O[C@H](CO)[C@@H](O)[C@H](N)[C@H]1O [AMIKACIN]
Not Active: IC50 (Endothelin-1 receptor) | IC50 (Cytochrome P450 2E1) | Ki (Cytochrome P450 2E1) | IC50 [1] | IC50 (Substance-P receptor) | IC50 [2] | IC50 [3] | IC50 (Adenosine receptor A1) | IC50 [4] | IC50 (Melanocortin receptor 3) | IC50 [5] | IC50 (Cytochrome P450 1A2) | Ki (Cytochrome P450 1A2) | IC50 [6] | IC50 [7]

C=C1C(=O)O[C@@H]2C3O[C@]3(C)CC/C=C(\C)CC[C@@H]12 (stereo not given in full)
Not Active: IC50 (Endothelin-1 receptor) | IC50 (Cytochrome P450 2E1) | Ki (Cytochrome P450 2E1) | IC50 [1] | IC50 (Substance-P receptor) | IC50 [2] | IC50 [3] | IC50 (Adenosine receptor A1) | IC50 [4] | IC50 (Melanocortin receptor 3) | IC50 [5] | IC50 (Cytochrome P450 1A2) | Ki (Cytochrome P450 1A2) | IC50 [6] | IC50 [7]

NCC1(CC(=O)O)CCCCC1 [GABAPENTIN]
Not Active: IC50 (Endothelin-1 receptor) | IC50 (Cytochrome P450 2E1) | Ki (Cytochrome P450 2E1) | IC50 [1] | IC50 (Substance-P receptor) | IC50 [2] | IC50 [3] | IC50 (Adenosine receptor A1) | IC50 [4] | IC50 (Melanocortin receptor 3) | IC50 [5] | IC50 (Cytochrome P450 1A2) | Ki (Cytochrome P450 1A2) | IC50 [6] | IC50 [7]

Brc1ccccc1 [BROMOBENZENE]
Not Active: IC50 (Endothelin-1 receptor) | IC50 (Cytochrome P450 2E1) | Ki (Cytochrome P450 2E1) | IC50 [1] | IC50 (Substance-P receptor) | IC50 [2] | IC50 [3] | IC50 (Adenosine receptor A1) | IC50 [4] | IC50 (Melanocortin receptor 3) | IC50 [5] | IC50 (Cytochrome P450 1A2) | Ki (Cytochrome P450 1A2) | IC50 [6] | IC50 [7]

CC(=O)CCCCn1c(=O)c2c(ncn2C)n(C)c1=O [PENTOXIFYLLINE]
Not Active: IC50 (Endothelin-1 receptor) | IC50 (Cytochrome P450 2E1) | Ki (Cytochrome P450 2E1) | IC50 [1] | IC50 (Substance-P receptor) | IC50 [2] | IC50 [3] | IC50 (Adenosine receptor A1) | IC50 [4] | IC50 (Melanocortin receptor 3) | IC50 [5] | IC50 (Cytochrome P450 1A2) | Ki (Cytochrome P450 1A2) | IC50 [6] | IC50 [7]

Cc1c(-c2ccccc2)oc2c(C(=O)OCCN3CCCCC3)cccc2c1=O [FLAVOXATE]
Not Active: IC50 (Endothelin-1 receptor) | IC50 (Cytochrome P450 2E1) | Ki (Cytochrome P450 2E1) | IC50 [1] | IC50 (Substance-P receptor) | IC50 [2] | IC50 [3] | IC50 (Adenosine receptor A1) | IC50 [4] | IC50 (Melanocortin receptor 3) | IC50 [5] | IC50 (Cytochrome P450 1A2) | Ki (Cytochrome P450 1A2) | IC50 [6] | IC50 [7]

C/C=C1\[C@H]2C=C(C)C[C@]1(N)c1ccc(=O)[nH]c1C2 [HUPERZINE A]
Not Active: IC50 (Endothelin-1 receptor) | IC50 (Cytochrome P450 2E1) | Ki (Cytochrome P450 2E1) | IC50 [1] | IC50 (Substance-P receptor) | IC50 [2] | IC50 [3] | IC50 (Adenosine receptor A1) | IC50 [4] | IC50 (Melanocortin receptor 3) | IC50 [5] | IC50 (Cytochrome P450 1A2) | Ki (Cytochrome P450 1A2) | IC50 [6] | IC50 [7]
